{"source": "patent US9393213B2", "about": "“Nanocrystals, compositions, and methods that aid particle transport in mucus” (Kala Pharmaceuticals, Inc., priority 2012, dated 2016)", "key": {"[1]": {"experiment": "Acute vaginal toxicity by H&E staining 24 h after intravaginal administration", "type": "in vivo, DP mice", "experimental": "Standard hematoxylin and eosin (H&E) staining was used to investigate potential toxic effects of intravaginally administered nanoparticles. […] The same (BD-) MPPs and (BD-) CPs that were used for distribution and retention studies were tested for toxicity.\nFive μL of particles or control solutions were administered intravaginally to the DP mouse model. After 24 h, whole cervicovaginal tracts were obtained and fixed in 4% paraformaldehyde solution for 24 h. Tissues were placed in 70% ethanol and taken to the Johns Hopkins Reference Histology Laboratory for paraffin embedding and standard H&E staining."}, "[2]": {"tested_on": "IL-1β, IL-1α, TNF-α, and IL-6", "experiment": "Cytokine concentrations in cervicovaginal lavage after daily vaginal treatment for 7 days", "details": "day 8 after daily dosing for seven days", "method": "Because our ultimate goal was to test MPPs for protection against HSV-2, we compared an MPP formulation containing acyclovir monophosphate (ACVp) to N9, HEC placebo gel, PBS, and a gel vehicle (TFV vehicle) used in recent tenofovir clinical trials. Nanoparticle and control formulations were administered vaginally to Depo Provera-treated mice daily for seven days.\nTwenty μL of each test agent was administered intravaginally to the DP mouse model once-a-day for seven (7) days. […] On the eighth day, each mouse was lavaged twice with 50 μL of PBS. Each lavage sample was diluted with an additional 200 μL of PBS and centrifuged to remove the mucus plug. Supernatant (200 μL) was removed and split into 50 μL for each of the four (IL-1β, IL-1α, TNF-α, and IL-6) Quantikine ELISA kits (R&D Systems, Inc.). ELISAs were conducted per the manufacturer's instructions."}, "[3]": {"type": "physicochemical", "text": "Tenofovir (TFV) is a potent antiviral drug used to treat infectious diseases. Due to the fact that tenofovir (TFV) is highly water soluble, a method was developed for formulating mucus-penetrating particles of tenofovir. […] In order to decrease the water solubility of TFV, interactions between cations and nucleotides/nucleotide analogs were exploited. TFV interacts very strongly with zinc cations (Zn), via the phosphonate group and the purine ring structure. This interaction with zinc causes TFV precipitation into crystals that can be stabilized with the coatings described herein, halting aggregation and determining the crystal surface properties. Additionally, Zn is naturally present in vaginal fluid and has known antimicrobial properties recently extended to include anti-HIV activity."}, "[4]": {"tested_on": "HSV-2", "details": "single vaginal pretreatment with 50 mg/mL (5%); guinea pigs; cited from earlier work"}, "[5]": {"tested_on": "HSV-2 strain G", "experiment": "HSV-2 vaginal challenge in mice", "type": "in vivo, CF-1 mice", "details": "intravaginal 30 min before challenge", "experimental": "Female 6-8 week old CF-1 mice were subcutaneously injected with medroxyprogesterone acetate, and one week later received 20 μl of test agent or PBS intravaginally with a fire-polished positive displacement capillary pipette (Wiretrol, Drummond Scientific). Thirty minutes later, mice were challenged with 10 uL of inoculum containing HSV-2 strain G (ATCC #VR-734, 2.8×10^7 TCID50 per mL). […] Mice were assessed for infection three days later after inoculation by culturing a PBS vaginal lavage on human foreskin fibroblasts (Diagnostic Hybrids, MRHF Lot #440318W), as described previously (R. A. Cone, T. Hoen, X. Wong, R. Abusuwwa, D. J. Anderson, T. R. Moench, Vaginal microbicides: detecting toxicities in vivo that paradoxically increase pathogen transmission. BMC Infect Dis 6, 90 (2006)).\nBoth the drug and the virus were administered intravaginally.\nACVp nanoparticles were formulated with the same muco-inert coating used for all other studies. […] To study the distribution and retention of nanoparticles at the vaginal mucosal surface and the effects of repeated dosing, 6-8 week old CF-1 mice (Harlan) were used. Mice were housed in a reversed light cycle facility (12 h light/12 h dark). […] Journal of Virology 79, 3107-3116 (2005)).\nAll data are presented as a mean with standard error of the mean (SEM) indicated. Statistical significance was determined by a two-tailed, Student's t-test (α=0.05) assuming unequal variance. In the case of HSV-2 challenge, statistical significance was determined using Fisher's exact test, two-tailed distribution."}, "[6]": {"text": "[formula] where <Vmean> is the ensemble average trajectory-mean velocity, Vmean is the velocity of an individual particle averaged over its trajectory, the sample is the particle of interest, the negative control is a 200 nm carboxylated polystyrene particle, and the positive control is a 200 nm polystyrene particle densely PEGylated with 2 kDa-5 kDa PEG.\nFor instance, a fluorescent microscope equipped with a CCD camera can be used to capture 15 s movies at a temporal resolution of 66.7 ms (15 frames/s) under 100× magnification from several areas within each sample for each type of particles: sample, negative control, and positive control.\nIn a typical experiment, ≦0.5 uL of a nanosuspension (diluted if necessary to the surfactant concentration of ˜1%) was added to 20 μl of fresh CVM along with controls. […] Using a fluorescent microscope equipped with a CCD camera, 15 s movies were captured at a temporal resolution of 66.7 ms (15 frames/s) under 100× magnification from several areas within each sample for each type of particles: sample (pyrene), negative control, and positive control (natural blue fluorescence of pyrene allowed observing of pyrene nanoparticles separately from the controls). […] To enable easy comparison between different samples and normalize velocity data with respect to natural variability in penetrability of CVM samples, relative sample velocity <Vmean>rel, was determined according to the formula shown in Equation 1.\nCVM was collected by inserting a Softcup® menstrual collection cup into the vaginal tract as described by the product literature for between 30 seconds and 2 minutes. After removal the CVM was then collected from the Softcup® by gentle centrifugation at ˜30×G to ˜120×G in a 50 mL centrifuge tube. In Example 1, CVM was used undiluted and fresh (stored for no longer than 7 days under refrigerated conditions). Barrier and transport of all CVM samples used in Example 1 were verified with negative (200 nm carboxylated polystyrene particles) and positive (200 nm polystyrene particles modified with PEG 5K) controls. In Example 2, CVM was lyophilized and reconstituted. In Example 2, mucus was frozen at −50° C. and then lyophilized to dryness. Samples were then stored at −50° C. Before use, the mucus was reconstituted by grinding the solid into a fine powder using a mortar and pestle followed by water addition to a final volume equal to the original volume to 2 times the original volume. The reconstituted mucus was then incubated at 4° C. for 12 hours and used as described in Example 2. Barrier and transport of all CVM samples used in Example 2 were verified with negative (200 nm carboxylated polystyrene particles) and positive (F127 coated 200 nm polystyrene particles) controls."}}, "data": [{"molecule": "Nonoxynol-9 [N9]", "values": [{"measurement": "inflammation in H&E-stained vaginal tissue", "setting": "[1]", "value": "acute inflammation"}, {"measurement": "IL-1α level in vaginal lavage", "setting": "[2]", "value": "elevated"}, {"measurement": "IL-1β level in vaginal lavage", "setting": "[2]", "value": "elevated"}]}, {"molecule": "C[C@H](Cn1cnc2c(N)ncnc21)OCP(=O)(O)O", "note": "[TFV, tenofovir]", "values": [{"measurement": "water solubility", "setting": "[3]", "value": "at least 15 mg/mL"}]}, {"molecule": "acyclovir monophosphate [Soluble ACV]", "values": [{"measurement": "animals infected compared to controls", "setting": "[4]", "value": 70, "unit": "%"}, {"measurement": "% Infected", "setting": "[5]; 1 mg/mL in PBS", "value": 84.0, "unit": "%"}, {"measurement": "# Infected", "setting": "[5]; 1 mg/mL in PBS, 25 mice", "value": 21}, {"measurement": "% Infected", "setting": "[5]; 1 mg/mL in PBS, listed as Soluble ACVp", "value": 84, "unit": "%"}, {"measurement": "% Infected", "setting": "[5]; 1 mg/mL in PBS, listed as soluble ACVp", "value": 84.0, "unit": "%"}, {"measurement": "% Infected", "setting": "[5]; 10 mg/mL in PBS", "value": 62.0, "unit": "%"}, {"measurement": "# Infected", "setting": "[5]; 10 mg/mL in PBS, 100 mice", "value": 62}, {"measurement": "% Infected", "setting": "[5]; 10 mg/mL in PBS, listed as Soluble ACVp", "value": 62, "unit": "%"}, {"measurement": "% Infected", "setting": "[5]; 10 mg/mL in PBS, listed as soluble ACVp", "value": 62.0, "unit": "%"}, {"measurement": "% Infected", "setting": "[5]; 10 mg/mL in Water", "value": 69.3, "unit": "%"}, {"measurement": "# Infected", "setting": "[5]; 10 mg/mL in Water, 75 mice", "value": 52}]}, {"molecule": "Tyloxapol", "values": [{"measurement": "Sample (relative) <Vmean>rel", "setting": "[6]", "value": "−0.02"}, {"measurement": "Sample <Vmean>", "setting": "[6]", "value": 0.42, "unit": "um/s"}]}, {"molecule": "Tween 80", "values": [{"measurement": "Sample (relative) <Vmean>rel", "setting": "[6]", "value": 0.17}, {"measurement": "Sample <Vmean>", "setting": "[6]", "value": 0.94, "unit": "um/s"}]}]}
